From the NIST ThermoML archive (doi:10.1016/j.jct.2013.03.002)
Numbers after ± are expanded uncertainties.

Conditions: Liquid; for Critical pressure: Direct measurement; for Critical temperature: Visual observation in an unstirred cell

Row | Critical pressure [kPa] | Critical temperature [K] | Structure (SMILES)
1 | 2761 ± 30 | 540 ± 2.4 | CCCCCCC [heptane]
2 | 4110 ± 30 | 554.1 ± 2.4 | C1CCCCC1 [cyclohexane]
3 | 6135 ± 30 | 514.2 ± 2.4 | CCO [ethanol]
4 | 5172 ± 30 | 537 ± 2.4 | CCCO [propan-1-ol]
5 | 8128 ± 30 | 512.3 ± 2.4 | CO [methanol]
6 | 3448 ± 30 | 497 ± 2.4 | COC(C)(C)C [2-methoxy-2-methylpropane]
7 | 3030 ± 30 | 507.9 ± 2.4 | CCCCCC [hexane]
